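Tested at 5 concentrations; 48 h exposure; 96-well plates; endpoints linearly interpolated, else capped at highest concentration. Abbreviation: GI50, concentration required for 50% inhibition of growth.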 Activity calls are given as the source filed them. Rule as the data show it: active = GI50 up to about 1.1 µM and inactive = higher.
Tests used:
Experiment in all cases: NCI-60 cell line screen, 48 h
A498 = system: A498
ACHN = system: ACHN
HT-29 = system: HT-29
K562 = system: K562
LOX IMVI = system: LOX IMVI
M14 = system: M14
MCF7 = system: MCF7
NCI-H226 = system: NCI-H226
NCI-H460 = system: NCI-H460
PC-3 = system: PC-3
RPMI-8226 = system: RPMI-8226
SF-295 = system: SF-295
SK-MEL-5 = system: SK-MEL-5
SK-OV-3 = system: SK-OV-3
SN12C = system: SN12C
SR = system: SR
SW-620 = system: SW-620
UACC-257 = system: UACC-257
UACC-62 = system: UACC-62

Measured: GI50

C=CCOC(OCC=C)/C(Br)=C/C
inactive: A498 > 100 µM | ACHN 17.6 µM | HT-29 20.2 µM | K562 > 100 µM | LOX IMVI 16.5 µM | M14 32.1 µM | MCF7 28.3 µM | NCI-H226 > 100 µM | NCI-H460 67.3 µM | PC-3 93.1 µM | RPMI-8226 > 100 µM | SF-295 > 100 µM | SK-MEL-5 37 µM | SK-OV-3 > 100 µM | SN12C > 100 µM | SR > 100 µM | SW-620 37.5 µM | UACC-257 > 100 µM | UACC-62 64.4 µM

OC(c1ccccc1)c1c(-c2ccccc2)oc(-c2ccccc2)c1C(O)c1ccccc1 (configuration not stated)
inactive: A498 16.8 µM | ACHN 6.14 µM | HT-29 11.1 µM | K562 3.58 µM | LOX IMVI 11.1 µM | M14 10 µM | MCF7 4.37 µM | NCI-H226 7.4 µM | NCI-H460 8.15 µM | PC-3 9.33 µM | RPMI-8226 2.72 µM | SF-295 15.1 µM | SK-MEL-5 11.4 µM | SK-OV-3 14.7 µM | SN12C 6.22 µM | SR 9.95 µM | SW-620 14.7 µM | UACC-62 11.2 µM

CC1CN=C(N(C(=O)Nc2ccc(F)c(Cl)c2)c2ccccc2)S1 (configuration not stated)
inactive: A498 21.1 µM | ACHN 25.5 µM | HT-29 22.9 µM | K562 27 µM | LOX IMVI 17.5 µM | M14 28.4 µM | MCF7 10.4 µM | NCI-H460 25.4 µM | PC-3 24.1 µM | RPMI-8226 25.8 µM | SF-295 31.3 µM | SK-MEL-5 16.4 µM | SK-OV-3 33.6 µM | SN12C 17.2 µM | SR > 10 µM | SW-620 27.5 µM | UACC-257 24.6 µM

O=C(O)CCc1ccc2c(c1)CC1(Cc3ccccc3C1)C2
inactive: A498 > 100 µM | ACHN 58.5 µM | HT-29 > 100 µM | LOX IMVI > 100 µM | M14 > 100 µM | MCF7 > 100 µM | NCI-H226 79.8 µM | PC-3 > 100 µM | RPMI-8226 > 100 µM | SF-295 > 100 µM | SK-MEL-5 > 100 µM | SK-OV-3 > 100 µM | SN12C > 100 µM | SR 37.9 µM | UACC-257 > 100 µM | UACC-62 > 100 µM

CC(=O)/C=C/c1cccc(N=S)c1
inactive: A498 27 µM | ACHN > 38.4 µM | HT-29 6.28 µM | K562 4.62 µM | LOX IMVI 2.39 µM | M14 6.71 µM | NCI-H226 46 µM | NCI-H460 > 36.9 µM | RPMI-8226 3.63 µM | SF-295 15.2 µM | SK-MEL-5 23.4 µM | SK-OV-3 > 48.1 µM | SN12C 25.6 µM | SR 7.78 µM | SW-620 2.44 µM | UACC-257 29.4 µM | UACC-62 21.6 µM

C1OC1CO[C@@H]1CO[C@H]2[C@@H]1OC[C@H]2OCC1CO1 (some centres not stated)
inactive: A498 > 100 µM | ACHN 73.1 µM | HT-29 > 100 µM | K562 > 100 µM | LOX IMVI > 100 µM | M14 > 100 µM | NCI-H226 > 100 µM | NCI-H460 61.7 µM | RPMI-8226 > 100 µM | SF-295 > 100 µM | SK-MEL-5 > 100 µM | SK-OV-3 > 100 µM | SN12C > 100 µM | SR 89.5 µM | SW-620 > 100 µM | UACC-257 > 100 µM | UACC-62 > 100 µM

COc1ccc(C2S/C(=C\c3ccc([N+](=O)[O-])cc3)C(=O)N2NC(=O)Cc2ccccc2)cc1 (configuration not stated)
inactive: A498 > 100 µM | ACHN > 100 µM | HT-29 > 100 µM | K562 > 100 µM | LOX IMVI > 100 µM | M14 > 100 µM | NCI-H226 > 100 µM | NCI-H460 > 100 µM | RPMI-8226 > 100 µM | SF-295 > 100 µM | SK-MEL-5 > 100 µM | SK-OV-3 > 100 µM | SN12C > 100 µM | SR > 100 µM | SW-620 > 100 µM | UACC-257 87.5 µM | UACC-62 85.9 µM

Cc1ccc(C2(O)CC(c3ccc([N+](=O)[O-])o3)=NN2C(=O)COc2ccc(Cl)cc2)cc1 (configuration not stated)
inactive: A498 4.98 µM | ACHN 4.99 µM | HT-29 5.47 µM | K562 4.07 µM | LOX IMVI 4.59 µM | M14 4.93 µM | NCI-H226 17.1 µM | NCI-H460 6.3 µM | RPMI-8226 2.24 µM | SF-295 10.6 µM | SK-MEL-5 2.32 µM | SK-OV-3 15.3 µM | SN12C 5.18 µM | SR 1.82 µM | SW-620 3.12 µM | UACC-257 4.91 µM | UACC-62 3.55 µM

Nc1nc2ncn(CC(O)CO)c2c(=S)[nH]1 (configuration not stated)
inactive: A498 > 100 µM | ACHN > 100 µM | HT-29 > 100 µM | K562 > 100 µM | LOX IMVI > 100 µM | M14 > 100 µM | NCI-H226 > 100 µM | NCI-H460 > 100 µM | RPMI-8226 > 100 µM | SF-295 > 100 µM | SK-MEL-5 > 100 µM | SK-OV-3 > 100 µM | SN12C > 100 µM | SR > 100 µM | SW-620 > 100 µM | UACC-257 > 100 µM | UACC-62 > 100 µM

O=C1N[C@@H](O)[C@@H]2ON=C(c3ccccc3)[C@H]12
inactive: A498 > 100 µM | ACHN > 100 µM | HT-29 > 100 µM | K562 > 100 µM | LOX IMVI > 100 µM | M14 > 100 µM | NCI-H226 > 100 µM | NCI-H460 > 100 µM | RPMI-8226 > 100 µM | SF-295 > 100 µM | SK-MEL-5 > 100 µM | SK-OV-3 > 100 µM | SN12C > 100 µM | SR > 100 µM | SW-620 > 100 µM | UACC-257 > 100 µM | UACC-62 > 100 µM

CCOC(=O)[C@@H]1ON2O[C@H](OC3CCCC3(c3ccccc3)c3ccccc3)C[C@H]3OC(=O)[C@@H]1C32 (some centres not stated)
inactive: A498 35.2 µM | ACHN 65.5 µM | HT-29 23.3 µM | K562 41.2 µM | LOX IMVI 27.2 µM | M14 45.3 µM | MCF7 34.4 µM | NCI-H226 36.4 µM | NCI-H460 34 µM | RPMI-8226 35.6 µM | SF-295 > 100 µM | SK-MEL-5 75.9 µM | SK-OV-3 > 100 µM | SN12C 97.5 µM | SR 33.7 µM | SW-620 28.2 µM | UACC-257 52.4 µM | UACC-62 27 µM

c1ccc(SC23C4C5C6C4C2C6C53)nc1 (configuration not stated)
inactive: A498 > 63.7 µM | ACHN > 100 µM | HT-29 > 100 µM | K562 > 100 µM | LOX IMVI > 100 µM | M14 > 100 µM | NCI-H226 > 100 µM | NCI-H460 > 100 µM | RPMI-8226 > 39.5 µM | SF-295 > 100 µM | SK-MEL-5 > 100 µM | SK-OV-3 > 100 µM | SN12C > 100 µM | SR > 19.6 µM | SW-620 > 100 µM | UACC-257 > 100 µM | UACC-62 > 100 µM
